How the values were obtained:
NDM-1 [1] = target: T1, NDM-1 (Klebsiella pneumoniae, UniProt C7C422); assay: biochemical; conditions: cleavage of imipenem (100 uM) by NDM-1; read-out: Ki, Imipenem
VIM-1 = target: T2, VIM-1 (Pseudomonas aeruginosa, UniProt A0A0F7KYQ8); assay: biochemical; conditions: cleavage of nitrocefin (200 uM) by VIM-1 supernatant
T2 construct: made in house; host or cells: ECM6711 strain carrying pUCP24-VIM-1 plasmid; culture supernatant used unpurified

NDM-1 [2] = target: T1, NDM-1; assay: Inhibition of purified class B carbapenemase NDM-1 (Ki, imipenem substrate); format: biochemical; conditions: NDM-1, substrate imipenem; read-out: Ki NDM-1, Imipenem
[3] = target: purified class A, C and D enzymes (Enterobacter cloacae, UniProt P05364); format: biochemical; conditions: purified P99/AmpC of ECL; nitrocefin reporter substrate
[4] = target: purified class A, C and D enzymes (Escherichia coli, UniProt Q9L5C7); format: biochemical; conditions: purified CTX-M-14; nitrocefin reporter substrate
[5] = target: T3, purified class A, C and D enzymes (UniProt P0AD64, L31Q/G234S/E235K, species not given); format: biochemical; conditions: read-out: Ki (SHV-12, NCF); purified SHV-12; nitrocefin reporter substrate
T3 construct: Ki (SHV-12, NCF); other: purified SHV-12; nitrocefin reporter substrate
T3 sequence (P0AD64 1-286 L31Q/G234S/E235K): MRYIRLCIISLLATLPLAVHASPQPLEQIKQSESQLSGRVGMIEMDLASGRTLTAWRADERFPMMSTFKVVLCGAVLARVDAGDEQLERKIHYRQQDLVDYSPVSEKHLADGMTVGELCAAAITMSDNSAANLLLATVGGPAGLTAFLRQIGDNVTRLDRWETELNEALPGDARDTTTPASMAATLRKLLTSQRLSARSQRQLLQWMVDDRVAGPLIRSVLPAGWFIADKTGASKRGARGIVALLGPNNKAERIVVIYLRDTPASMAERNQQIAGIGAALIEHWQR

[6] = target: T4, purified class A, C and D enzymes (UniProt Q6XEC0); format: biochemical; conditions: read-out: Ki (OXA-48, NCF); purified OXA-48; nitrocefin reporter substrate
T4 construct: rows headed: Ki (OXA-48, NCF); other: purified OXA-48; nitrocefin reporter substrate

[7] = target: T5, purified class A, C and D enzymes (UniProt Q9F663); format: biochemical; conditions: read-out: Ki (KPC-2, NCF); purified KPC-2; nitrocefin reporter substrate
T5 construct: rows headed: Ki (KPC-2, NCF); other: purified KPC-2; nitrocefin reporter substrate

T1 sequence (C7C422 29-270, looked up, species assumed): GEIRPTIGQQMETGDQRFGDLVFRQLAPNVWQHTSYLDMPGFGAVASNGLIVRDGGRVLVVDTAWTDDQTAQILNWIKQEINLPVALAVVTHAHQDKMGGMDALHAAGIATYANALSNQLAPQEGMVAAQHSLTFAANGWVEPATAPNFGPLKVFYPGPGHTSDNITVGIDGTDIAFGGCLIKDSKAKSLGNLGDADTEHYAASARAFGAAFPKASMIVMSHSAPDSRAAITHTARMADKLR
Sequence of purified class A, C and D enzymes (Enterobacter cloacae, UniProt P05364) (P05364 21-381): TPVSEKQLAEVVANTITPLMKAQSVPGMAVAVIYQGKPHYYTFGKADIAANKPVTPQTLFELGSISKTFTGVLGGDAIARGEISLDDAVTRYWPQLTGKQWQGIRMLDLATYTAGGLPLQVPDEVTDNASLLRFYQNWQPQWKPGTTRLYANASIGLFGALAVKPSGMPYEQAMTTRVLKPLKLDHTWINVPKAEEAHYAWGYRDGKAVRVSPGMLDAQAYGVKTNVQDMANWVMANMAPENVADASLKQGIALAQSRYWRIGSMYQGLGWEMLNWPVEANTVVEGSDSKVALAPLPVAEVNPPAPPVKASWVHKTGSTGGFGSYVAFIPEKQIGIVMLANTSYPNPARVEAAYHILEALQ
Sequence of purified class A, C and D enzymes (Escherichia coli, UniProt Q9L5C7) (Q9L5C7 entry or part of it): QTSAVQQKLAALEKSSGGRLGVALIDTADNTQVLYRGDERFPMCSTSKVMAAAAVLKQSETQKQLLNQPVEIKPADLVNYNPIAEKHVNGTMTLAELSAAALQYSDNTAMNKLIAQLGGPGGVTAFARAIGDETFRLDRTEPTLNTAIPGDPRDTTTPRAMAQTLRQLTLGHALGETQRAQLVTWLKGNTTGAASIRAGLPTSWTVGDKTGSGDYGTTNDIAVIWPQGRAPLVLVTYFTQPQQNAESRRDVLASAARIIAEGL

| Structure (SMILES) | Ki (NDM-1 [1]) [nM] | IC50 (VIM-1) [nM] | Ki (NDM-1 [2]) [nM] | Ki (P99/AmpC of ECL, NCF) [3] | Ki (CTX-M-14, NCF) [4] | Ki [5] [nM] | Ki [6] [nM] | Ki [7] [nM] |
| --- | --- | --- | --- | --- | --- | --- | --- | --- |
| Nc1nnc(CCS[C@H]2Cc3ccc(F)c(C(=O)O)c3OB2O)s1 [Compound 50, (3R)-3-[2-(5-amino-1,3,4-thiadiazol-2-yl)ethylsulfanyl]-7-fluoro-2-hydroxy-3,4-dihydro-1,2-benzoxaborinine-8-carboxylic acid] | > 100 | < 1000 | > 100 | X (Less than 0.1 μM) | X (Less than 0.1 μM) | < 100 | < 100 | < 100 |
| COc1ccc2c(c1C(=O)O)OB(O)[C@@H](Sc1nnc(N[C@H]3CCNC3)s1)C2 [Compound 103, (3R)-2-hydroxy-7-methoxy-3-[[5-[[(3S)-pyrrolidin-3-yl]amino]-1,3,4-thiadiazol-2-yl]sulfanyl]-3,4-dihydro-1,2-benzoxaborinine-8-carboxylic acid] | < 10 | < 1000 | < 10 | Y (0.1 μM to 1 μM) | X (Less than 0.1 μM) | < 100 | < 100 | 100 to 1000 |
| Nc1nnc(S[C@H]2Cc3ccc(-n4ccnn4)c(C(=O)O)c3OB2O)s1 [Compound 119, (3R)-3-[(5-amino-1,3,4-thiadiazol-2-yl)sulfanyl]-2-hydroxy-7-(triazol-1-yl)-3,4-dihydro-1,2-benzoxaborinine-8-carboxylic acid] | < 10 | < 1000 | < 10 | Y (0.1 μM to 1 μM) | X (Less than 0.1 μM) | 100 to 1000 | < 100 | > 1000 |
| COc1ccc2c(c1C(=O)O)OB(O)[C@@H](Sc1nncn1N)C2 [Compound 26, (R)-3-(4-amino-4H-1,2,4-triazol-3-ylthio)-2-hydroxy-7-methoxy-3,4-dihydro-2H-benzo[e][1,2]oxaborinine-8-carboxylic acid] | < 10 | < 1000 | < 10 | Y (0.1 μM to 1 μM) | X (Less than 0.1 μM) | < 100 | < 100 | 100 to 1000 |
| Nc1ncc(S[C@H]2Cc3ccc(F)c(C(=O)O)c3OB2O)s1 [Compound 52, (3R)-3-(2-aminothiazol-5-yl)sulfanyl-7-fluoro-2-hydroxy-3,4-dihydro-1,2-benzoxaborinine-8-carboxylic acid] | > 100 | < 1000 | > 100 | Y (0.1 μM to 1 μM) | X (Less than 0.1 μM) | < 100 | < 100 | < 100 |
| COc1ccc2c(c1C(=O)O)OB(O)[C@@H](Sc1nnc(NC3CCNCC3)s1)C2 [Compound 104, (3R)-2-hydroxy-7-methoxy-3-[[5-(4-piperidylamino)-1,3,4-thiadiazol-2-yl]sulfanyl]-3,4-dihydro-1,2-benzoxaborinine-8-carboxylic acid] | < 10 | < 1000 | < 10 | Y (0.1 μM to 1 μM) | X (Less than 0.1 μM) | < 100 | < 100 | < 100 |
| COc1ccc2c(c1C(=O)O)OB(O)[C@@H](Sc1nc(C(N)=O)cs1)C2 [Compound 61, (3R)-3-(4-carbamoylthiazol-2-yl)sulfanyl-2-hydroxy-7-methoxy-3,4-dihydro-1,2-benzoxaborinine-8-carboxylic acid] | > 100 | < 1000 | > 100 | Y (0.1 μM to 1 μM) | X (Less than 0.1 μM) | < 100 | < 100 | < 100 |
| O=C(O)c1c(F)ccc2c1OB(O)[C@@H](SC1CNC1)C2 [Compound 46, (R)-3-(azetidin-3-ylthio)-7-fluoro-2-hydroxy-3,4-dihydro-2H-benzo[e][1,2]oxaborinine-8-carboxylic acid] | > 100 | ≥ 1000 | > 100 | Z (Greater than 1 μM) | X (Less than 0.1 μM) | < 100 | < 100 | 100 to 1000 |
| C[S+]([O-])c1ccc2c(c1C(=O)O)OB(O)[C@@H](Sc1nnc(N)s1)C2 (stereo partly drawn) [Compound 34, (3R)-3-(5-amino-1,3,4-thiadiazol-2-ylthio)-2-hydroxy-7-(methylsulfinyl)-3,4-dihydro-2H-benzo[e][1,2]oxaborinine-8-carboxylic acid] | 10 to 100 | < 1000 | 10 to 100 | X (Less than 0.1 μM) | X (Less than 0.1 μM) | < 100 | < 100 | 100 to 1000 |
| O=C(O)c1c(F)ccc2c1OB(O)[C@@H](Sc1nncs1)C2 [Compound 59, (3R)-7-fluoro-2-hydroxy-3-(1,3,4-thiadiazol-2-ylsulfanyl)-3,4-dihydro-1,2-benzoxaborinine-8-carboxylic acid] | > 100 | < 1000 | > 100 | Y (0.1 μM to 1 μM) | X (Less than 0.1 μM) | < 100 | < 100 | < 100 |
| O=C(O)c1cccc2c1OB(O)[C@@H](Sc1nnc(NC3CNC3)s1)C2 [Compound 99, (3R)-3-[[5-(azetidin-3-ylamino)-1,3,4-thiadiazol-2-yl]sulfanyl]-2-hydroxy-3,4-dihydro-1,2-benzoxaborinine-8-carboxylic acid] | < 10 | < 1000 | < 10 | X (Less than 0.1 μM) | X (Less than 0.1 μM) | < 100 | < 100 | 100 to 1000 |
| N#CCOc1ccc2c(c1C(=O)O)OB(O)[C@@H](Sc1nncs1)C2 [Compound 86, (3R)-7-(cyanomethoxy)-2-hydroxy-3-(1,3,4-thiadiazol-2-ylsulfanyl)-3,4-dihydro-1,2-benzoxaborinine-8-carboxylic acid] | > 100 | < 1000 | > 100 | Z (Greater than 1 μM) | X (Less than 0.1 μM) | < 100 | < 100 | 100 to 1000 |
| COc1ccc2c(c1C(=O)O)OB(O)[C@@H](Sc1nnc[nH]1)C2 [Compound 70, (3R)-2-hydroxy-7-methoxy-3-(4H-1,2,4-triazol-3-ylsulfanyl)-3,4-dihydro-1,2-benzoxaborinine-8-carboxylic acid] | 10 to 100 | < 1000 | 10 to 100 | Y (0.1 μM to 1 μM) | X (Less than 0.1 μM) | < 100 | < 100 | 100 to 1000 |
| CCOc1ccc2c(c1C(=O)O)OB(O)[C@@H](Sc1nnc(N)s1)C2 [Compound 83, (3R)-3-[(5-amino-1,3,4-thiadiazol-2-yl)sulfanyl]-7-ethoxy-2-hydroxy-3,4-dihydro-1,2-benzoxaborinine-8-carboxylic acid] | < 10 | < 1000 | < 10 | Y (0.1 μM to 1 μM) | X (Less than 0.1 μM) | < 100 | < 100 | 100 to 1000 |
| Nc1nnc(S[C@H]2Cc3ccc(OC(F)F)c(C(=O)O)c3OB2O)s1 [Compound 84, (3R)-3-[(5-amino-1,3,4-thiadiazol-2-yl)sulfanyl]-7-(difluoromethoxy)-2-hydroxy-3,4-dihydro-1,2-benzoxaborinine-8-carboxylic acid] | 10 to 100 | < 1000 | 10 to 100 | Y (0.1 μM to 1 μM) | X (Less than 0.1 μM) | < 100 | < 100 | 100 to 1000 |
| COc1ccc2c(c1C(=O)O)OB(O)[C@@H](Sc1nnc(N(CCN)CCN)s1)C2 [Compound 101, (3R)-3-[[5-[bis(2-aminoethyl)amino]-1,3,4-thiadiazol-2-yl]sulfanyl]-2-hydroxy-7-methoxy-3,4-dihydro-1,2-benzoxaborinine-8-carboxylic acid] | < 10 | < 1000 | < 10 | Z (Greater than 1 μM) | X (Less than 0.1 μM) | < 100 | < 100 | 100 to 1000 |

— US10206937B2, “Boronic acid derivatives and therapeutic uses thereof” (Qpex Biopharma, Inc., priority 2014, dated 2019)
